Results taken from US20250382565A1, “INTELLIGENT SUPERVISION SYSTEM AND METHOD FOR BACTERIAL CULTURE EQUIPMENT BASED ON BIG DATA” (Suzhou Foo-Chi Biomedical Technology Co., Ltd., priority 2024, published 2025).

Tested on: Staphylococcus aureus ATCC 29213
Assay: MIC of the antibiotic against the strain to be tested by E-test
Assay type: cell-based
Conditions: ATCC29213, cefuroxime E-test strip, overnight culturing, CLSI standard operation
Experimental: Test of the MIC of the antibiotic against the strain to be tested: The strain ATCC 29213 for test is incubated onto a culture medium plate, and a bacterial colony grows after 18 to 24 h for future use. Normal saline (a phosphate buffer solution, or the like) is prepared and is then separately put into turbidimeter tubes, each of which has a capacity of 9 mL, and sterilization treatment is carried out (at 121° C. for 15 to 30 min). A particular number of bacteria are added into the turbidimeter tubes to make bacterial suspensions, and the MacFarland turbidity is adjusted to 0.5 to 1 McFarland. According to a CLSI standard operation and use guidelines of E-test, a swab is dipped into each bacterial suspension, and is applied to a culture medium. After the swab is dried for 15 to 20 min, a cefuroxime E-test strip is applied to a surface of a bacterial moss for overnight culturing. A scale at an intersection of an edge of an inhibition zone and the strip is read. The scale is an MIC value of ATCC 29213 against the cefuroxime, which is 2 ug/mL.

CO/N=C(\C(=O)N[C@@H]1C(=O)N2C(C(=O)O)=C(COC(N)=O)CS[C@H]12)c1ccco1 [cefuroxime]
MIC: 2 mg/L
